The record followed here is patent US20160108049A1 (TAKEDA Gmbh, priority 2011, published 2016).

In assay [1] the target is T1, PDE4B1 (Homo sapiens, UniProt Q07343).
T1 construct: made in house; host or cells: SF21 insect cells (baculovirus; virus made in SF9 cells, pCR-Bac vector)
Description: Inhibition of PDE4 activity (PDE4B1, SPA assay). The format is biochemical. The following applies: recombinant PDE4B1, 0.5 μM cAMP; read-out: PDE4B1 Inhibitory values measured as -logIC50 (converted). Put shortly: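 Read-out is SPA yttrium silicate bead scintillation after IBMX-containing beads stop the reaction. Insect-cell (SF21) lysate enzyme hydrolysed 0.5 μM [3H]cAMP at pH 7.4 with 5 mM Mg2+ for 15 min after a 5 min 37 °C preincubation; IC50 fitted by non-linear regression.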

In assay [2] the target is T2, human PDE5 (Homo sapiens, UniProt O76074).
T2 construct: from tissue; host or cells: human platelets from fresh donor blood (platelet lysate)
Briefly: Inhibition of PDE5 activity (platelet lysate, SPA assay). The format is biochemical. The following applies: 0.5 μM cGMP, read-out: PDE5 Inhibitory values measured as -logIC50 (converted). Put shortly: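 SPA readout of [3H]cGMP hydrolysis (0.5 μM, 15 min, 37 °C after 5 min preincubation), stopped with yttrium silicate beads containing IBMX. Enzyme was lysate from human platelets, used at 10–20% substrate turnover, with PDE3 (motapizone 1 μM) and PDE2 (10 nM) blockers present. IC50 values fitted non-linearly from concentration-effect curves.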

SMILES strings stand for the structures. Some results are limits rather than exact numbers.

T1 sequence (Q07343 whole entry): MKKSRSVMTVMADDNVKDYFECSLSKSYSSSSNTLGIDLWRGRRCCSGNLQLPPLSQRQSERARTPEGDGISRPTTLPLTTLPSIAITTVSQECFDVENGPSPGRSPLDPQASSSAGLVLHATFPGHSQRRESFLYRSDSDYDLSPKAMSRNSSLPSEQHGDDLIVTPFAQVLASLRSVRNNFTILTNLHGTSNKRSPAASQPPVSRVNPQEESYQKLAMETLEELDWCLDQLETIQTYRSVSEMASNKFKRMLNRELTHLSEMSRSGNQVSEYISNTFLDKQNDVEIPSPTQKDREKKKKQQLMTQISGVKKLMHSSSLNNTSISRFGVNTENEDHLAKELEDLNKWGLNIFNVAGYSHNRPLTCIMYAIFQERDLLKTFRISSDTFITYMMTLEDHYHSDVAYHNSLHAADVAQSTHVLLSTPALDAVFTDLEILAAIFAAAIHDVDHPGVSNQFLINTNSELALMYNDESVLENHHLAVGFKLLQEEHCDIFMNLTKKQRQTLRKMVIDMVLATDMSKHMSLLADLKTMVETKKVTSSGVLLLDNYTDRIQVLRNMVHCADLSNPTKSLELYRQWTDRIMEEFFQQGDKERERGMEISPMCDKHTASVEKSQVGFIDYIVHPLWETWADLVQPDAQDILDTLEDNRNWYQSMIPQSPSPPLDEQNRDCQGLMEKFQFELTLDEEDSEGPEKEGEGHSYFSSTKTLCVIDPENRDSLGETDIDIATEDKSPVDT

Consider `COc1ccc(C2=NN(C3CCN(C(=O)[C@@H](Cc4cn(C)c5ccccc45)NC(=O)c4c[nH]c5c(-c6c(OCC7CC7)ccc7c6OCO7)ncnc45)CC3)C(=O)[C@@H]3CCCC[C@H]23)cc1OC` [Example 93, 4-[5-(cyclopropylmethoxy)-1,3-benzodioxol-4-yl]-N-[(2R)-1-{4-[(4aS,8aR)-4-(3,4-dimethoxyphenyl)-1-oxo-4a,5,6,7,8,8a-hexahydrophthalazin-2(1H)-yl]piperidin-1-yl}-3-(1-methyl-1H-indol-3-yl)-1-oxopropan-2-yl]-5H-pyrrolo[3,2-d]pyrimidine-7-carboxamide], for which the IC50 was under 1 nM in assay [1] and 1 to 10 nM in assay [2].
Regarding `COc1ccc(C2=NN(C3CCN(C(=O)[C@H](CC4CCCCC4)NC(=O)c4c[nH]c5c(-c6c(OCC7CC7)ccc7c6OCO7)ncnc45)CC3)C(=O)C(C)(C)C2)cc1OC` [Example 94, N-[(2S)-3-cyclohexyl-1-{4-[3-(3,4-dimethoxyphenyl)-5,5-dimethyl-6-oxo-5,6-dihydropyridazin-1(4H)-yl]piperidin-1-yl}-1-oxopropan-2-yl]-4-[5-(cyclopropylmethoxy)-1,3-benzodioxol-4-yl]-5H-pyrrolo[3,2-d]pyrimidine-7-carboxamide], the IC50 is 1 to 10 nM in assay [1] and under 1 nM in assay [2].
As for `COc1ccc(C2=NN(C3CCN(C(=O)[C@@H](CC(C)C)NC(=O)c4c[nH]c5c(-c6c(OCC7CC7)ccc7c6OCO7)ncnc45)CC3)C(=O)[C@@H]3CCCC[C@H]23)cc1OC` [Example 95, 4-[5-(cyclopropylmethoxy)-1,3-benzodioxol-4-yl]-N-[(2R)-1-{4-[(4aS,8aR)-4-(3,4-dimethoxyphenyl)-1-oxo-4a,5,6,7,8,8a-hexahydrophthalazin-2(1H)-yl]piperidin-1-yl}-4-methyl-1-oxopentan-2-yl]-5H-pyrrolo[3,2-d]pyrimidine-7-carboxamide], the IC50 in assay [1] and in assay [2] was under 1 nM throughout.
Regarding `COc1ccc(C2=NN(C3CCN(C(=O)[C@@H](CN(C)C)NC(=O)c4c[nH]c5c(-c6c(OCC7CC7)ccc7c6OCO7)ncnc45)CC3)C(=O)[C@@H]3CCCC[C@H]23)cc1OC` [Example 96, 4-[5-(cyclopropylmethoxy)-1,3-benzodioxol-4-yl]-N-[(2R)-1-{4-[(4aS,8aR)-4-(3,4-dimethoxyphenyl)-1-oxo-4a,5,6,7,8,8a-hexahydrophthalazin-2(1H)-yl]piperidin-1-yl}-3-(dimethylamino)-1-oxopropan-2-yl]-5H-pyrrolo[3,2-d]pyrimidine-7-carboxamide], the IC50 in assay [1] and in assay [2] was 1 to 10 nM each time.
As for `COc1ccc(C2=NN(C3CCN(C(=O)[C@H](CN(C)C)NC(=O)c4c[nH]c5c(-c6c(OCC7CC7)ccc7c6OCO7)ncnc45)CC3)C(=O)[C@@H]3CCCC[C@H]23)cc1OC` [Example 97, 4-[5-(cyclopropylmethoxy)-1,3-benzodioxol-4-yl]-N-[(2S)-1-{4-[(4aS,8aR)-4-(3,4-dimethoxyphenyl)-1-oxo-4a,5,6,7,8,8a-hexahydrophthalazin-2(1H)-yl]piperidin-1-yl}-3-(dimethylamino)-1-oxopropan-2-yl]-5H-pyrrolo[3,2-d]pyrimidine-7-carboxamide], the IC50 in assay [1] and in assay [2] was 1 to 10 nM in each case.
With `COc1ccc(C2=NN(C3CCN(C(=O)[C@@H](CCSC)NC(=O)c4c[nH]c5c(-c6c(OCC7CC7)ccc7c6OCO7)ncnc45)CC3)C(=O)[C@@H]3CCCC[C@H]23)cc1OC` [Example 98, 4-[5-(cyclopropylmethoxy)-1,3-benzodioxol-4-yl]-N-[(2R)-1-{4-[(4aS,8aR)-4-(3,4-dimethoxyphenyl)-1-oxo-4a,5,6,7,8,8a-hexahydrophthalazin-2(1H)-yl]piperidin-1-yl}-4-(methylsulfanyl)-1-oxobutan-2-yl]-5H-pyrrolo[3,2-d]pyrimidine-7-carboxamide], the IC50 in assay [1] and in assay [2] was under 1 nM each time.
`COc1ccc(C2=NN(C3CCN(C(=O)[C@@H](Cc4ccc(Br)cc4)NC(=O)c4c[nH]c5c(-c6c(OCC7CC7)ccc7c6OCO7)ncnc45)CC3)C(=O)[C@@H]3CCCC[C@H]23)cc1OC` [Example 99, N-[(2R)-3-(4-bromophenyl)-1-{4-[(4aS,8aR)-4-(3,4-dimethoxyphenyl)-1-oxo-4a,5,6,7,8,8a-hexahydrophthalazin-2(1H)-yl]piperidin-1-yl}-1-oxopropan-2-yl]-4-[5-(cyclopropylmethoxy)-1,3-benzodioxol-4-yl]-5H-pyrrolo[3,2-d]pyrimidine-7-carboxamide]: the IC50 in assay [1] and in assay [2] was 1 to 10 nM in each case.
Take `COc1ccc(C2=NN(C3CCN(C(=O)[C@@H](CCC(=O)OCc4ccccc4)NC(=O)c4c[nH]c5c(-c6c(OCC7CC7)ccc7c6OCO7)ncnc45)CC3)C(=O)[C@@H]3CCCC[C@H]23)cc1OC` [Example 100, Benzyl (4R)-4-[({4-[5-(cyclopropylmethoxy)-1,3-benzodioxol-4-yl]-5H-pyrrolo[3,2-d]pyrimidin-7-yl}carbonyl)amino]-5-{4-[(4aS,8aR)-4-(3,4-dimethoxyphenyl)-1-oxo-4a,5,6,7,8,8a-hexahydrophthalazin-2(1H)-yl]piperidin-1-yl}-5-oxopentanoate]: the IC50 in assay [1] and in assay [2] was 1 to 10 nM each time.
On to `COc1ccc(C2=NN(C3CCN(C(=O)[C@@H](CCC(=O)O)NC(=O)c4c[nH]c5c(-c6c(OCC7CC7)ccc7c6OCO7)ncnc45)CC3)C(=O)[C@@H]3CCCC[C@H]23)cc1OC` [Example 101, (4R)-4-[({4-[5-(cyclopropylmethoxy)-1,3-benzodioxol-4-yl]-5H-pyrrolo[3,2-d]pyrimidin-7-yl}carbonyl)amino]-5-{4-[(4aS,8aR)-4-(3,4-dimethoxyphenyl)-1-oxo-4a,5,6,7,8,8a-hexahydrophthalazin-2(1H)-yl]piperidin-1-yl}-5-oxopentanoic acid], for which the IC50 in assay [1] and in assay [2] was 1 to 10 nM each time.
Consider `COc1ccc(C2=NN(C3CCN(C(=O)[C@H](CCC(=O)N4CCCC4)NC(=O)c4c[nH]c5c(-c6c(OCC7CC7)ccc7c6OCO7)ncnc45)CC3)C(=O)[C@@H]3CCCC[C@H]23)cc1OC` [Example 102, 4-[5-(cyclopropylmethoxy)-1,3-benzodioxol-4-yl]-N-[(2S)-1-{4-[(4aS,8aR)-4-(3,4-dimethoxyphenyl)-1-oxo-4a,5,6,7,8,8a-hexahydrophthalazin-2(1H)-yl]piperidin-1-yl}-1,5-dioxo-5-(pyrrolidin-1-yl)pentan-2-yl]-5H-pyrrolo[3,2-d]pyrimidine-7-carboxamide], for which the IC50 in assay [1] and in assay [2] was 1 to 10 nM throughout.
As for `COc1ccc(C2=NN(C3CCN(C(=O)[C@H](CCC(=O)OCc4ccccc4)NC(=O)c4c[nH]c5c(-c6c(OCC7CC7)ccc7c6OCO7)ncnc45)CC3)C(=O)[C@@H]3CCCC[C@H]23)cc1OC` [Example 104, Benzyl (4S)-4-[({4-[5-(cyclopropylmethoxy)-1,3-benzodioxol-4-yl]-5H-pyrrolo[3,2-d]pyrimidin-7-yl}carbonyl)amino]-5-{4-[(4aS,8aR)-4-(3,4-dimethoxyphenyl)-1-oxo-4a,5,6,7,8,8a-hexahydrophthalazin-2(1H)-yl]piperidin-1-yl}-5-oxopentanoate], the IC50 in assay [1] and in assay [2] was 1 to 10 nM throughout.
On to `COc1ccc(C2=NN(C3CCN(C(=O)[C@@H](CCC(=O)N4CCCC4)NC(=O)c4c[nH]c5c(-c6c(OCC7CC7)ccc7c6OCO7)ncnc45)CC3)C(=O)[C@@H]3CCCC[C@H]23)cc1OC` [Example 105, 4-[5-(cyclopropylmethoxy)-1,3-benzodioxol-4-yl]-N-[(2R)-1-{4-[(4aS,8aR)-4-(3,4-dimethoxyphenyl)-1-oxo-4a,5,6,7,8,8a-hexahydrophthalazin-2(1H)-yl]piperidin-1-yl}-1,5-dioxo-5-(pyrrolidin-1-yl)pentan-2-yl]-5H-pyrrolo[3,2-d]pyrimidine-7-carboxamide], for which the IC50 in assay [1] and in assay [2] was 1 to 10 nM throughout.
On to `COc1ccc(C2=NN(C3CCN(C(=O)[C@H](CCC(=O)NC(C)C)NC(=O)c4c[nH]c5c(-c6c(OCC7CC7)ccc7c6OCO7)ncnc45)CC3)C(=O)[C@@H]3CCCC[C@H]23)cc1OC` [Example 106, 4-[5-(cyclopropylmethoxy)-1,3-benzodioxol-4-yl]-N-[(2S)-1-{4-[(4aS,8aR)-4-(3,4-dimethoxyphenyl)-1-oxo-4a,5,6,7,8,8a-hexahydrophthalazin-2(1H)-yl]piperidin-1-yl}-1,5-dioxo-5-(propan-2-ylamino)pentan-2-yl]-5H-pyrrolo[3,2-d]pyrimidine-7-carboxamide], for which the IC50 in assay [1] and in assay [2] was 1 to 10 nM each time.
As to `COc1ccc(C2=NN(C3CCN(C(=O)[C@@H](CCC(=O)NC(C)C)NC(=O)c4c[nH]c5c(-c6c(OCC7CC7)ccc7c6OCO7)ncnc45)CC3)C(=O)[C@@H]3CCCC[C@H]23)cc1OC` [Example 107, 4-[5-(cyclopropylmethoxy)-1,3-benzodioxol-4-yl]-N-[(2R)-1-{4-[(4aS,8aR)-4-(3,4-dimethoxyphenyl)-1-oxo-4a,5,6,7,8,8a-hexahydrophthalazin-2(1H)-yl]piperidin-1-yl}-1,5-dioxo-5-(propan-2-ylamino)pentan-2-yl]-5H-pyrrolo[3,2-d]pyrimidine-7-carboxamide], the IC50 in assay [1] and in assay [2] was 1 to 10 nM throughout.
